{"source": "the NIST ThermoML archive (doi:10.1016/j.tca.2019.03.026)", "key": {"[1]": {"conditions": "for Normal melting temperature: DTA"}, "[2]": {"test": "Molar enthalpy of transition or fusion", "conditions": "DSC"}}, "note": "± gives the expanded uncertainty stated by the source.", "data": [{"smiles": "Cc1ccc(C)c(OCCCC(C)(C)C(=O)O)c1", "note": "[gemfibrozil]", "values": [{"measurement": "Normal melting temperature", "setting": "[1]; Crystal", "value": "59.00 ± 0.4", "unit": "°C"}, {"measurement": "Glass transition temperature", "setting": "[1]; Glass, DSC", "value": "-32.00 ± 1", "unit": "°C"}, {"measurement": "Normal melting temperature", "setting": "[1]; Metastable crystal", "value": "58.00 ± 0.4", "unit": "°C"}, {"measurement": "Molar enthalpy of transition or fusion", "setting": "[2]; Crystal", "value": "6.76 ± 0.454", "unit": "kcal/mol"}, {"measurement": "Molar enthalpy of transition or fusion", "setting": "[2]; Metastable crystal", "value": "6.19 ± 0.502", "unit": "kcal/mol"}]}]}
